Results from patent publication EP4696306A1, “ADENOSINE TRIPHOSPHATE SECRETION INHIBITOR, HEPATIC STELLATE CELL ACTIVATION INHIBITOR, HEPATIC STELLATE CELL DEACTIVATOR, HEPATIC FIBROSIS THERAPEUTIC AGENT, NON-ALCOHOLIC STEATOHEPATITIS THERAPEUTIC AGENT, PSORIASIS THERAPEUTIC AGENT, AND USE OF COMPOUND FOR PRODUCING ADENOSINE TRIPHOSPHATE …” (KURUME UNIVERSITY, priority 2023, dated 2024).
Counter-ions that a name gives are not always drawn.

Experiments:
[1] = system: ATP transport activity in isolated chromaffin granule membranes; experiment: ATP transport (3H-ATP uptake) in chromaffin granule membrane vesicles; format: biochemical, bovine; conditions: N = 3
Experimental: (§1) Chromaffin granule membranes were prepared from adrenal glands collected from slaughtered cattle according to Reference A (Nathan Nelson et al., 1988, Chromaffin Granule Proton Pump, Methods in Enzymology, 157, 619-633). Chromaffin granule membranes prepared by sucrose density gradient centrifugation were suspended in 2 ml of SME buffer (20 mM MOPS-tris (pH 7.0), 0.3 M sucrose, 5 mM EDTA, 10 µg/ml leupeptin, and 10 µg/ml pepstatin) + 25% glycerol, and the resulting suspension was aliquoted and stored at -80°C. Under these conditions, the ATP transport activity, the V-ATPase activity, and the catecholamine transport activity remain fully active for at least one year.
An ATP transport inhibition experiment for the chromaffin granule membrane was carried out according to Reference B (Yoshinori Moriyama et al., 2022, Is the vesicular nucleotide transporter a molecular target of eicosapentaenoic acid?, Frontiers in Pharmacology, 103389). About 20 µg of chromaffin granule membranes were added to 0.5 ml of measurement buffer (20 mM MOPS-tris (pH 7.0), 0.3 M sucrose, 5 mM potassium chloride, 5 mM magnesium acetate, 5 mM creatine phosphate, 10 units of creatine kinase, and 1 mM ^3[H]-ATP [15 KBq/assay]), followed by incubation at 30°C for 1 hour. Through a Millipore MCE membrane filter with a pore size 0.45 µm, 0.2 ml of the reaction liquid was filtered by suction. Thereafter, the filter was washed with 10 ml of 20 mM MOPS-tris (pH 7.0), 0.3 M sucrose, 5 mM potassium chloride, and 5 mM magnesium acetate, and dissolved in 10 ml of Clear-sol II (manufactured by Nacalai Tesque, Inc.). The radioactivity was then measured using a liquid scintillation counter (N = 3).
The reaction was initiated by adding 50 mM ^3[H]-ATP to a final concentration of 1 mM. The 50 mM ^3[H]-ATP was prepared by mixing an ATP-tris solution (manufactured by Sigma-Aldrich) with [2,8-^3H] adenosine triphosphate tetrasodium salt (26.0 Ci/mmol) (manufactured by New England Nuclear). PEP was used as a test reagent, and pyruvic acid was used as a negative control. Five minutes before the addition of ATP, PEP or pyruvic acid, as a solution in 20 mM MOPS-tris (pH 7.0), 0.3 M sucrose, 5 mM potassium chloride, and 5 mM magnesium acetate, was added to the measurement liquid to a final PEP concentration of 0.02, 0.05, 0.1, 0.2, 0.4, or 1 mM, or to a final pyruvic acid concentration of 0.5 or 1 mM.
(§2) Chromaffin granule membrane vesicles were prepared in the same manner as in Example 5, and uptake of radiolabeled ATP into the vesicles was measured. Transport activity of catecholamine (dopamine) and ATP-dependent proton transport by V-ATPase were also measured in the same manner as in Example 5.

[2] = system: catecholamine transport; experiment: Catecholamine (3H-dopamine) transport in chromaffin granule membranes; format: biochemical, bovine; conditions: MANT-ATP; N = 3
Experimental: as §1
A catecholamine transport inhibition experiment was carried out in the same manner as the ATP transport experiment except that the experiment used a measurement liquid containing 20 mM MOPS-tris (pH 7.0), 0.1 M sucrose, 0.1 M potassium chloride, 5 mM magnesium acetate, and about 5 µg of chromaffin granule membranes. To 0.5 ml of the measurement liquid, 2 mM ATP was added, and the resulting mixture was incubated at 30°C for about 5 minutes, followed by addition of^3 [H]-dopamine thereto to a final concentration of 10 µM. After further incubation at 30°C for 15 minutes, 0.2 ml of the reaction liquid was subjected to suction filtration through a Millipore MCE membrane filter with a pore size of 0.45 µm, and the radioactivity on the filter was measured (N = 3). The substrate, ^3[H]-dopamine, was prepared by mixing 3,4-[RING-2,5,6-^3H]dihydroxyphenylethylamine (dopamine) (30 Ci/mmol) (manufactured by New England Nuclear) with dopamine hydrochloride (manufactured by LKT Laboratories) such that a final concentration of 0.1 mM was achieved during the use.
as §2

[3] = biological target: T1, V-ATPase (Bos taurus, UniProt P31404); experiment: ATP-dependent proton transport by V-ATPase (acridine orange / oxonol-V fluorescence quenching); format: biochemical, bovine
T1 construct: from tissue; host or cells: bovine adrenal medulla chromaffin granule membranes
T1 sequence (P31404 whole entry, looked up): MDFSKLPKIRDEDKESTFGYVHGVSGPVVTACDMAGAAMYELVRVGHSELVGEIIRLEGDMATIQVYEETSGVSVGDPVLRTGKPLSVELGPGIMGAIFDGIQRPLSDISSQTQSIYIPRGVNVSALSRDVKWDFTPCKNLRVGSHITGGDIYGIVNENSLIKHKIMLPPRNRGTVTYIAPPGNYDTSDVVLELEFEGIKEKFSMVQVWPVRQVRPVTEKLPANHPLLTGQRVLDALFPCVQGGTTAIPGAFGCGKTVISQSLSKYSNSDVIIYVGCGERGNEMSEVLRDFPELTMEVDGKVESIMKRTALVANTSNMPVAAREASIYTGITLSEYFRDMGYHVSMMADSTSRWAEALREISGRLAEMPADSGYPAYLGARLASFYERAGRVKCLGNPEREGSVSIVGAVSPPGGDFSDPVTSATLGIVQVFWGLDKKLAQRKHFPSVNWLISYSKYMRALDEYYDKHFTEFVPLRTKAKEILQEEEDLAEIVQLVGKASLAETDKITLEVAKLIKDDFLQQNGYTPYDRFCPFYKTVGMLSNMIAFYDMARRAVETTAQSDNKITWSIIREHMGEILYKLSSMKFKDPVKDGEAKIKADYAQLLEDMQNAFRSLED
Experimental: as §1
ATP-dependent proton transport by V-ATPase was measured according to Reference B. Proton transport activity was measured using a spectrofluorometer at excitation wavelength of 492 nm and a fluorescence wavelength 540 nm, wherein fluorescence quenching of acridine orange was used as an index (N = 2). The transmembrane potential generated was measured using a spectrofluorometer at an excitation wavelength of 580 nm and a fluorescence wavelength of 630 nm, wherein fluorescence quenching of oxonol-V was used as an index (N = 2). The acridine measurement liquid (2 ml) contained 20 mM MOPS-tris (pH 7.0), 0.2 M sucrose, 0.1 M potassium chloride, 5 mM magnesium acetate, 0.2 µg valinomycin, 2 µM acridine orange, and about 20 µg of chromaffin granules. The oxonol-V measurement liquid (2 ml) contained 20 mM MOPS-tris (pH 7.0), 0.3 M sucrose, 5 mM magnesium acetate, 5 µM oxonol-V, and about 20 µg of chromaffin granules.
as §2

[4] = system: ATP transport activity in isolated chromaffin granule membranes; experiment: ATP transport (3H-ATP uptake) in chromaffin granule membrane vesicles; format: biochemical, bovine; conditions: MANT-ATP; N = 3
[5] = system: human epidermal keratinocytes; experiment: ATP secretion promoted by ionomycin in keratinocytes; format: cell-based; conditions: 0.1 µM, 6 hours incubation, N = 3
Experimental: Human epidermal keratinocytes (Cryopreserved HEK, Lot 1758, Cell Applications Inc.) were cultured using an Epivita Keratinocyte Growth Medium Kit according to the manufacturer's instructions. The procedure was as follows. A supplement medium was added to a hydrocortisone-containing basal medium included in the medium preparation kit to prepare a complete medium. The medium in the dish was removed by aspiration. The cells were washed with 5 ml of BSS (Gbco), and then the BSS was removed by aspiration. After addition of 5 to 6 ml of trypsin/EDTA solution (Gbco), the dish was incubated at 37°C for 2 minutes. After addition of 5 ml of trypsin neutralization solution, the resulting cell suspension was transferred into two 15-ml Falcon tubes, and centrifuged at 200 × g for 5 minutes. The supernatant was removed by aspiration, and the pelleted cell cluster was suspended in 2 ml of the medium at 4.5 × 10^5 cells/ml. An aliquot of the resulting cell suspension was cryopreserved, while another aliquot was cultured and subjected to measurement.
ATP secretion by human epidermal keratinocytes (hereinafter referred to as "keratinocytes") was measured. Regarding control solutions, Krebs-Ringer HEPES supplemented with 0.2% BSA and 25 mM glucose (hereinafter also referred to as "Krebs/Iono(-)") was used as a negative control, and a solution prepared by adding 5 µM ionomycin to this solution (hereinafter also referred to as "Krebs/Iono(+)") was used as a positive control for ATP secretion. Ionomycin is a Ca^2+ ionophore. Addition of ionomycin to cells is known to promote influx of extracellular Ca^2+ into the cells to increase the intracellular Ca^2+ concentration, resulting in enhancement of ATP secretion. Test solutions were prepared by adding clodronate to Krebs/Iono(-) or Krebs/Iono(+) to a final concentration of 0.1 µM (hereinafter also referred to as "Clo/Iono(-)" or "Clo/Iono(+)", respectively) (N = 3).
Keratinocytes were cultured at 2.5 × 10^4 cells/well in a 24-well plate at 37°C in 5% CO2 for 4 days. The medium was removed by aspiration, replaced with Krebs/Iono(-) or Clo/Iono(-), and incubated at 37°C for 6 hours. These solutions were then removed by aspiration, and the content of each well incubated with Krebs/Iono(-) was replaced with 300 µl of a control solution (Krebs/Iono(-) or Krebs/Iono(+)), while the content of each well incubated with Clo/Iono(-) was replaced with 300 µl of a test solution (Clo/Iono(-) or Clo/Iono(+)). After further incubation at 37°C for 20 minutes, 200 µl of the supernatant was collected. The collected supernatant was immediately treated on a heat block at 95°C for 10 minutes, to inactivate ectonucleotidase. ATP in the supernatant was quantified using a Dojindo ATP assay kit - Luminescence (manufactured by Dojindo Laboratories).
After culturing keratinocytes, the medium was removed by aspiration, and replaced with Krebs/Iono(-), or Krebs/Iono(-) supplemented with 10 µM imeglimin, 0.1 µM EPA, 1 µM EPA, or 10 µM clodronate, followed by incubation for 6 hours. Subsequently, the solution was replaced with either a control solution (Krebs/Iono(-) or Krebs/Iono(+)) or a test solution (Krebs/Iono(+) supplemented with 10 µM imeglimin, 0.1 µM EPA, 1 µM EPA, or 10 µM clodronate), followed by incubation at 37°C for 20 minutes and then collection of 200 µl of the supernatant. The collected supernatant was immediately treated on a heat block at 95°C for 10 minutes to inactivate ectonucleotidase. ATP in the supernatant was quantified using a Dojindo ATP assay kit - Luminescence (manufactured by Dojindo Laboratories).
Keratinocytes were cultured in the same manner as in Example 1, and the medium was replaced with Krebs/Iono(-), Krebs/Iono(-) supplemented with 0.1 µM, 1 µM, or 10 µM imeglimin, or Krebs/Iono(-) supplemented with 0.1 µM, 1 µM, or 10 µM metformin, followed by incubation for 6 hours. […]

[6] = system: human epidermal keratinocytes; experiment: LPS-stimulated ATP secretion in keratinocytes; format: cell-based; conditions: 10 µM; 18 hours incubation, LPS 10 µg/ml 10 minutes; N = 8
Experimental: Keratinocytes were cultured in the same manner as in Example 1. Keratinocytes were cultured at 2.5 × 10^4 cells/well in a 24-well plate at 37°C in 5% CO2 for 4 days. The medium was replaced with a test solution (Hanks' balanced salt solution (HBSS) (manufactured by Gibco) supplemented with imeglimin, metformin, or clodronate), and then incubation was performed at 37°C in 5% CO2 for 18 hours. Thereafter, LPS (10 µg/ml) was added thereto, and incubation was further carried out for 10 minutes, followed by collection of 200 µl of the supernatant. The supernatant was immediately treated on a heat block at 95°C for 10 minutes, and ATP in the supernatant was quantified using an ATP Assay Kit - Luminescence (manufactured by Dojindo) (N = 8).

[7] = biological target: T2, VNUT (Homo sapiens, UniProt Q9BYT1); experiment: Inhibitory effect on VNUT (data not shown); format: biochemical
T2 sequence (Q9BYT1 1-436): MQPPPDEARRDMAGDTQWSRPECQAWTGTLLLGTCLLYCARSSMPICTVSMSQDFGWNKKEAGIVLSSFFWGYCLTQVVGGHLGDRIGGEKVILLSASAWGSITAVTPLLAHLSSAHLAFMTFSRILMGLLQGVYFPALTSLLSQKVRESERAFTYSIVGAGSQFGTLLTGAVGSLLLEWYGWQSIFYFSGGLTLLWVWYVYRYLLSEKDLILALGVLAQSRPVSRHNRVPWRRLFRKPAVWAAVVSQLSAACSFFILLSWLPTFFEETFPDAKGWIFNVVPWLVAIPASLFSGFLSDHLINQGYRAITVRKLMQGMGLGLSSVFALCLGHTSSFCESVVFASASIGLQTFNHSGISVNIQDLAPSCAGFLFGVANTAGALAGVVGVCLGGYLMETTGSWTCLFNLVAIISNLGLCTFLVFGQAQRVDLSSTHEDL

[8] = biological target: V-ATPase (Homo sapiens, UniProt P38606); experiment: Inhibitory effect on V-ATPase (data not shown); format: biochemical
Sequence of V-ATPase (Homo sapiens, UniProt P38606) (P38606 whole entry): as the sequence (P31404 whole entry, looked up) above, with R10L, V131I, N157S, I199V, S204T, E576D, V590L, A599S counted along it

quenching of acridine orange fluorescence with MANT-ATP as substrate ([3]; addition of 0.1mM MANT-ATP, before addition of ATP) [%] | effect on ATP-dependent proton transport by V-ATPase ([3]; concentrations of up to 100 µM, N = 1) | Structure (SMILES) | ID50 of ATP transport [1] | effect on the catecholamine transport system [2] | inhibition of ATP transport [4] | ATP secretion inhibitory effect, comparison and concentration dependence ([5]; 1 µM, 10 µM) | ATP secretion inhibitory effect [5] | ATP secretion upon LPS stimulation [6] | inhibitory effect on VNUT [7] | inhibitory effect on V-ATPase [8]
34 | did not affect | CNc1ccccc1C(=O)O[C@H]1[C@@H](O)[C@H](n2cnc3c(N)ncnc32)O[C@@H]1COP(=O)(O)OP(=O)(O)OP(=O)(O)O [MANT-ATP, 2'/3'-O-(N-methyl-anthraniloyl)-adenosine-5'-triphosphate triethylammonium salt] | about 30 mM | hardly affected | strongly inhibited ATP transport | – | – | – | – | –
– | – | CN(C)C(=N)N=C(N)N [metformin] | – | – | – | decreased inhibitory effect at higher concentrations | exhibit an ATP secretion inhibitory effect | almost completely inhibited | neither imeglimin nor metformin exhibited a strong inhibitory effect | neither imeglimin nor metformin exhibited a strong inhibitory effect
